Experimental data taken from patent US5962502A, “Polyamidic acid derivatives with antigastrin activity, a method for their preparation, and their pharmaceutical use” (priority 1993, dated 1999).
Several values for one entry are separate records, joined by “and”; a condition that tells them apart may be missing. Equal entries are not always repeated.

Assays:
central CCK-B receptor = target: T1, central CCK-B receptor (Cavia porcellus, UniProt H0VZC5); experiment: Inhibition of the binding of [3-H][N-methyl-N-leucine]CCK-8 to guinea-pig cortical membranes; details: for IC50 / inhibition of the binding of [N-methyl-N-leucine]CCK-8, result in words: guinea-pig cortical membranes; for IC50: 150 minutes at 25° C.
T1 construct: Cerebral cortices of male white guinea-pigs were thus used; from tissue; host or cells: cerebral cortex membranes of male white guinea-pigs
T1 sequence (H0VZC5 1-426): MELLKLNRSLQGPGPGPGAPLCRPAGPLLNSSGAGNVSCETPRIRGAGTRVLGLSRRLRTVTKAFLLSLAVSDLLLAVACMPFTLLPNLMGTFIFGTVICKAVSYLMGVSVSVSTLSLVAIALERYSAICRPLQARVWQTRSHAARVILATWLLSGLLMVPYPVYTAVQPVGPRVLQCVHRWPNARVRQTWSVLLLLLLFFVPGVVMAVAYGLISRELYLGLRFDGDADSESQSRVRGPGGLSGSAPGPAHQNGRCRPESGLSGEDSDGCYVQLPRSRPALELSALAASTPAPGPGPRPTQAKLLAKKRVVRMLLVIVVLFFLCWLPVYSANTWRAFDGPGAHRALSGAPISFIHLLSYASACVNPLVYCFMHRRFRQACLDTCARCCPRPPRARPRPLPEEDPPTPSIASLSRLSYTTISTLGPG
Method in brief: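 Male guinea-pig cerebral cortex membranes (about 300 mcg protein/ml) incubated with non-sulphated [3-H]-labelled CCK-8 tracer and compound 150 minutes at 25° C. Pellet radioactivity counted by liquid scintillation; nonspecific binding defined with 5.10^-6 M CCK-8.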

[1] = target: T2, gastrin receptors or type-B cholecystokinin (CCK-B) receptors (Oryctolagus cuniculus, UniProt P46627); experiment: Inhibition of the gastrin-induced increase of cytosolic calcium in rabbit gastric mucous-membrane cells (Fura 2); assay type: cell-based; details: for Ratio IC50 Binding cortex / IC50 (gastric mucous cells): binding values taken from Table 3; for IC50, inhibition of the increase of cytosolic calcium: rabbit gastric mucous cells enriched in parietal cells, gastrin 5×10^-8; for CCK-B-antagonistic activity IC50 (II): data taken from Table 4 (rabbit gastric mucous cells), reprinted in Table 6; for IC50 order of magnitude, peripheral antigastrin activity: rabbit gastric mucous cells
T2 construct: Rabbit gastric mucous-membrane cells were prepared by conventional techniques; endogenous in cells; host or cells: freshly isolated rabbit gastric mucosal cells, enriched by elutriation to about 70% parietal cells
T2 sequence (P46627 1-452): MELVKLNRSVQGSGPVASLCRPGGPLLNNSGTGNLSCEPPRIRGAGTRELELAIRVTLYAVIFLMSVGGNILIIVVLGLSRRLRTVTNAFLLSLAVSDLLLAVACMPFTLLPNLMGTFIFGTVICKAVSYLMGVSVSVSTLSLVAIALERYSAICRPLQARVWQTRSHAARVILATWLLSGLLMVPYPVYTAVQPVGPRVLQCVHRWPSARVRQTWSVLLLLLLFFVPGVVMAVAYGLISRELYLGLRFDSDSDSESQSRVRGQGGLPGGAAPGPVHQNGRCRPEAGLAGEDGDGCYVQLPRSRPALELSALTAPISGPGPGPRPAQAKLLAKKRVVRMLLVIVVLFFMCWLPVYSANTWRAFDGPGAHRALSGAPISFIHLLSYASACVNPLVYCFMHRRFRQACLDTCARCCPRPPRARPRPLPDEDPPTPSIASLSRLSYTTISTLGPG
Description: The parietal cells of the gastric mucous membrane are responsible for the secretion of HCl. They have specific membrane receptors which can be activated by gastrin and which have been defined as gastrin receptors or type-B cholecystokinin (CCK-B) receptors. Since it has been observed that the activation of the CCK-B receptors by gastrin leads to an increase in the cytosolic levels of calcium ions, a technique involving the measurement of the increase in intracellular calcium induced by gastrin in the presence and in the absence of the compounds of the invention was used as an index of the antigastrin activity of the compounds. Rabbit gastric mucous-membrane cells were prepared by conventional techniques with the use of collagenase and pronase as digestive enzymes. The cellular preparation obtained by the enzymatic digestion was composed of parietal cells, zymogen cells and mucous-membrane cells. […] The cells were then washed and resuspended in a saline solution buffered with HEPES containing, in mM: […] Each measurement was carried out on cells in suspension (0.8×10^6 /ml) at a thermostatically-controlled temperature of 37° C. and with constant magnetic stirring. The fluorescence was recorded with the use of a spectrofluorometer. The operative wavelengths were 340/380 nm for excitation and 505 nm for emission. […] Biol. Chem. 260 (1985), 3440]. […] The results thus obtained for some compounds of the invention are given in Table 4, which also gives an index derived from the ratio between the peripheral antigastrin activity just described and the displacement activity found in the test on binding to the guinea-pig cortex receptors described above.

[2] = test system: acid secretion induced by pentagastrin; experiment: Acid secretion induced by pentagastrin in the anaesthetized rat; assay type: in vivo; details: for ED50: iv, 1 h, I.V. bolus, pentagastrin 30 mcg/kg/h, read-out: Activity (ID50), inhibition of the acid secretion induced by pentagastrin
Description: The activity of the compounds of the invention against gastric secretion performed by means of a mechanism with an antigastrin effect, was examined in vivo in anaesthetized rats with the use of male animals weighing about 200 g. Gastric secretion was stimulated with pentagastrin and Lai's method [Gut 5, (1964), 327-341 ] was used, with slight modification.
After tracheotomy, the oesophagus and duodenum were cannulated. A tepid solution (37° C.) of 0.25 mM NaOH was perfused and was passed through the stomach by means of a peristaltic pump at a constant flow-rate of 1 ml/minute. After stabilization for 20 minutes, the stimulant, dissolved in a physiological solution, was perfused for 120 minutes at a dose of 30 mcg/kg/h, in a volume of 0.95 ml/hour. After perfusion for 60 minutes (the basal stimulation), the product under test was administered intravenously (I.V.) as a bolus and perfusion of the stimulant was continued for a further 60 minutes. The acid secretion was recorded continuously as a function of time.
The activity of the product was evaluated as the percentage reduction of secreted acidity after the administration of the product, in comparison with the basal acidity measured during the first 60 minutes of collection in the presence of pentagastrin alone.
The antagonistic compounds tested were administered in various doses so that an ID50, that is, the dose (in mg/kg I.V.) which could inhibit the effect of pentagastrin by 50%, could be calculated.

CCK-A = target: T3, CCK-A (Cavia porcellus, UniProt Q63931); experiment: Anti-CCK-A activity on guinea-pig gall bladder stimulated in vitro by CCK-8; details: for Ratio I/II (CCK-A IC50 / CCK-B IC50): gall bladder IC50 over gastric mucous cells IC50; for IC50: guinea-pig gall bladder in vitro, CCK-8 10 ng/ml, read-out: CCK-A-antagonistic activity IC50 (I)
T3 construct: A longitudinal strip of guinea-pig gall-bladder was put in a bath for isolated organs; from tissue; host or cells: guinea-pig gall bladder longitudinal strip
T3 sequence (Q63931 1-430): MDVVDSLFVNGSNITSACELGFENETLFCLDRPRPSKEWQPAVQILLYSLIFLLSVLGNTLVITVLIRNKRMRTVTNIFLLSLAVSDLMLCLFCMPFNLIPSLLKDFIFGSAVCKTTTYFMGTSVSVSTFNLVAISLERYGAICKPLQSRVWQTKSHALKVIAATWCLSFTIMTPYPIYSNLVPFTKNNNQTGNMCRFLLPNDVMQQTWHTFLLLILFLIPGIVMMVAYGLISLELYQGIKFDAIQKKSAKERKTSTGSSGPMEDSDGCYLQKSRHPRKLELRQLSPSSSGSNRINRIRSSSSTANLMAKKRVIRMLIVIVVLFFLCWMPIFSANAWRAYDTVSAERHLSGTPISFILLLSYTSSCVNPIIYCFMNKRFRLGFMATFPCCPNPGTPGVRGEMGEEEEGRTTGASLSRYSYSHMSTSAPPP
Description: The experimental model used was guinea-pig gall bladder stimulated in vitro by CCK-8, with the use of lorglumide as the reference standard. A longitudinal strip of guinea-pig gall-bladder was put in a bath for isolated organs in the presence of Krebs buffer at a temperature of 32° C., with continuous oxygenation with an oxygen-CO2 mixture (95-[…]). The isometric contractions were detected by means of a force transducer and recorded.

CCK-B receptors = details: guinea-pig; Knapp et al; cited from earlier work

Row | Molecule | IC50 (central CCK-B receptor) | Ratio IC50 Binding cortex / IC50 (gastric mucous cells) [1] | IC50, inhibition of the increase of cytosolic calcium [1] | ED50 [2] | Ratio I/II (CCK-A IC50 / CCK-B IC50) (CCK-A) | IC50 (CCK-A) | CCK-B-antagonistic activity IC50 (II) [1] | inhibition of the binding of [N-methyl-N-leucine]CCK-8, result in words (central CCK-B receptor) | IC50 order of magnitude, peripheral antigastrin activity [1] | affinity for the receptors of the cortex (CCK-B) relative to those of the pancreas (CCK-A) (CCK-B receptors) | times more active than the corresponding diastereoisomer at the carbon atom (**) (central CCK-B receptor; binding, guinea-pig cortex) | antigastrin activity relative to the diastereoisomer at the carbon atom (**) ([2]; pentagastrin-induced acid secretion)
1 | O=C(CC[C@@H](NC(=O)c1cc(Cl)cc(Cl)c1)C(=O)N1CCC2(CCCC2)CC1)Nc1ccccc1C(=O)O [Compound 50] | 450 nM | 15.0 | 30 nM | 12 mg/kg and 21.4 µmol/kg | 160.0 | 4800 nM | – | – | – | – | – | –
2 | O=C(CC[C@@H](NC(=O)c1cc(Cl)cc(Cl)c1)C(=O)N1CCC2(CCCC2)CC1)N[C@@H](Cc1ccccc1)C(=O)O [Compound 10] | 730 nM | 3.7 | 200 nM | 28.4 mg/kg and 48.3 µmol/kg | 179 | 35800 nM | 200 nM | – | – | – | – | –
3 | O=C(CC[C@@H](NC(=O)c1cc(Cl)cc(Cl)c1)C(=O)N1CCC2(CCCC2)CC1)N[C@H](Cc1cccc2ccccc12)C(=O)O [Compound 25] | 70 nM | 10.0 | 7 nM | 7.1 mg/kg and 11.1 µmol/kg | 1214 | 8500 nM | 7 nM | potent inhibitors | nanomolar order of magnitude | – | – | –
4 | O=C(CC[C@@H](NC(=O)c1cc(Cl)cc(Cl)c1)C(=O)N1CCC2(CCCCC2)CC1)N[C@H](Cc1c[nH]c2ccccc12)C(=O)O [Compound 30] | 100 nM | 12.5 | 8 nM | 15.2 mg/kg and 23.7 µmol/kg | 1837 | 14700 nM | 8 nM | potent inhibitors | nanomolar order of magnitude | – | – | –
5 | non-sulphated [3-H] [N-methyl-N-leucine]CCK-8 | – | – | – | – | – | – | – | – | – | approximately 4000 times | – | –
6 | O=C(O)C[C@@H](Cc1ccccc1)NC(=O)CC[C@@H](NC(=O)c1cc(Cl)cc(Cl)c1)C(=O)N1CCC2(CCCC2)CC1 [Compound 15] | 220 nM | 7.3 | 30 nM | 13.5 mg/kg and 22.4 µmol/kg | 160 | 4800 nM | 30 nM | – | – | – | 1.5 times | –
7 | O=C(CC[C@@H](NC(=O)c1cc(Cl)cc(Cl)c1)C(=O)N1CCC2(CCCC2)CC1)N[C@@H](Cc1c[nH]c2ccccc12)C(=O)O [Compound 20] | 220 nM | 7.3 | 30 nM | 10.9 mg/kg and 17.4 µmol/kg | 1397 | 41900 nM | 30 nM | – | – | – | – | almost the same antigastrin activity
